Test [1] deals with T1, Replicative DNA helicase DnaB (Mycobacterium tuberculosis, UniProt P9WMR3).
T1 sequence (P9WMR3 whole entry): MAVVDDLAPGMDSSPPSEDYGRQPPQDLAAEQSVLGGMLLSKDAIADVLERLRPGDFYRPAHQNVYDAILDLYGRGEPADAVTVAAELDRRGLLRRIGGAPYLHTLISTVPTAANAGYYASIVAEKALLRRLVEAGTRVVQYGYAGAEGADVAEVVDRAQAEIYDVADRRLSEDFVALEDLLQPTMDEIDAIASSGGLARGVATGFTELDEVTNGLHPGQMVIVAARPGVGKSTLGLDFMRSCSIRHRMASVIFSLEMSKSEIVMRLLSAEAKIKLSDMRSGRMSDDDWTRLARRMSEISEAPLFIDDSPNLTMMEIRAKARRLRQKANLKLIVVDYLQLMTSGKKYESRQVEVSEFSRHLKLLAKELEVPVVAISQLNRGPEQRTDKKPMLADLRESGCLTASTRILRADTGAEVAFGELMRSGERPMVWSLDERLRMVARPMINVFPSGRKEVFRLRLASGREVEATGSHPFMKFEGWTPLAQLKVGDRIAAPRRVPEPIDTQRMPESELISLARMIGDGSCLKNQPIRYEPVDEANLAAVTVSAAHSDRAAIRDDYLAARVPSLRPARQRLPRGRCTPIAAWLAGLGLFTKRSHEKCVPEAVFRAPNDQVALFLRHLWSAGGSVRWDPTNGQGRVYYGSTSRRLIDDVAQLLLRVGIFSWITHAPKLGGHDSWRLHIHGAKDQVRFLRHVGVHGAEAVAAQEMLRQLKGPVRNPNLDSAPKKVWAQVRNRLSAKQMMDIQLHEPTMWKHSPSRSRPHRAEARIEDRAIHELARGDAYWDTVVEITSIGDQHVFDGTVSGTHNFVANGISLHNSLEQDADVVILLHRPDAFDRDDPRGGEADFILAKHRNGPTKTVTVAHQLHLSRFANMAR
Put plainly: DnaB intein splicing inhibitors, dose response, biochemical, cell-free fluorescence (AID 449749). In kind it is functional.

The target in test [2] is T2, RNA-binding protein pos-1 (Caenorhabditis elegans, UniProt G5EF15).
T2 sequence (G5EF15 whole entry): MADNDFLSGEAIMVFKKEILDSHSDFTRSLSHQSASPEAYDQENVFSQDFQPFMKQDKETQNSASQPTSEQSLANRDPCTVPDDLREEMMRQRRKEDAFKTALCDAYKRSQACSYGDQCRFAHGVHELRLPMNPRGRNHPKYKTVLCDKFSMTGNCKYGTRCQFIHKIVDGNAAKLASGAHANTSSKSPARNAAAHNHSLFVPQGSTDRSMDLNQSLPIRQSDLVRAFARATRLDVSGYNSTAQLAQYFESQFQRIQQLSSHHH
Put plainly: inhibitors of POS-1/mex-3 RNA binding, dose response, biochemical, fluorescence polarization (AID 1964).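 Further: purified POS-1 fused to maltose binding protein made in E. coli; potency of compounds blocking POS-1 binding to fluorescent RNA.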 On the technique in general: Fluorescence polarisation rises when a labelled molecule tumbles more slowly, as on binding a larger partner.

Test [3] has as its target Receptor-type tyrosine-protein kinase FLT3 (Homo sapiens, UniProt P36888). In kind it is functional.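 Further: FLT3 was tested as one member of a kinome-wide kinase panel.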
Test [4] addresses Death-associated protein kinase 3 (Homo sapiens, UniProt O43293). In kind it is functional.
The target of test [5] is Dual specificity tyrosine-phosphorylation-regulated kinase 1A (Homo sapiens, UniProt Q13627). In kind it is functional.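 Further: measured against DYRK1A as one member of a broad kinome profiling panel.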
Test [6] has as its target Serine/threonine-protein kinase Chk2 (Homo sapiens, UniProt O96017). In kind it is functional.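 Further: CHEK2 entry within a kinome-wide screening panel.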
The target in test [7] is Tyrosine-protein kinase JAK2 (Homo sapiens, UniProt O60674). In kind it is functional.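 Further: JAK2 tested as one member of a kinase panel.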
Test [8] has as its target Tyrosine-protein kinase ITK/TSK (Homo sapiens, UniProt Q08881). In kind it is functional.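 Further: affinity for ITK measured as one member of a broad kinase panel profiling binding across the kinome.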
For test [9], the target named is Inhibitor of nuclear factor kappa-B kinase subunit beta (Homo sapiens, UniProt O14920). In kind it is functional.
The target in test [10] is Glycogen synthase kinase-3 beta (Homo sapiens, UniProt P49841). In kind it is functional.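 Further: value comes from a broad kinome profiling panel, with GSK3B as the panel member.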
Test [11] deals with Dual specificity protein kinase CLK4 (Homo sapiens, UniProt Q9HAZ1). In kind it is functional.
The target in test [12] is G protein-coupled receptor kinase 5 (Homo sapiens, UniProt P34947). Nature of the test: Navigating the Kinome. Panel member name: GPRK5. In kind it is functional.
Test [13] deals with Focal adhesion kinase 1 (Homo sapiens, UniProt Q05397). In kind it is functional.
The target in test [14] is cAMP-dependent protein kinase catalytic subunit PRKX (Homo sapiens, UniProt P51817). In kind it is functional.

Activity calls are given as the source filed them. Where only a bound is given, the exact number is not on record here.

Chain of Tyrosine-protein kinase JAK2 (O60674 whole entry): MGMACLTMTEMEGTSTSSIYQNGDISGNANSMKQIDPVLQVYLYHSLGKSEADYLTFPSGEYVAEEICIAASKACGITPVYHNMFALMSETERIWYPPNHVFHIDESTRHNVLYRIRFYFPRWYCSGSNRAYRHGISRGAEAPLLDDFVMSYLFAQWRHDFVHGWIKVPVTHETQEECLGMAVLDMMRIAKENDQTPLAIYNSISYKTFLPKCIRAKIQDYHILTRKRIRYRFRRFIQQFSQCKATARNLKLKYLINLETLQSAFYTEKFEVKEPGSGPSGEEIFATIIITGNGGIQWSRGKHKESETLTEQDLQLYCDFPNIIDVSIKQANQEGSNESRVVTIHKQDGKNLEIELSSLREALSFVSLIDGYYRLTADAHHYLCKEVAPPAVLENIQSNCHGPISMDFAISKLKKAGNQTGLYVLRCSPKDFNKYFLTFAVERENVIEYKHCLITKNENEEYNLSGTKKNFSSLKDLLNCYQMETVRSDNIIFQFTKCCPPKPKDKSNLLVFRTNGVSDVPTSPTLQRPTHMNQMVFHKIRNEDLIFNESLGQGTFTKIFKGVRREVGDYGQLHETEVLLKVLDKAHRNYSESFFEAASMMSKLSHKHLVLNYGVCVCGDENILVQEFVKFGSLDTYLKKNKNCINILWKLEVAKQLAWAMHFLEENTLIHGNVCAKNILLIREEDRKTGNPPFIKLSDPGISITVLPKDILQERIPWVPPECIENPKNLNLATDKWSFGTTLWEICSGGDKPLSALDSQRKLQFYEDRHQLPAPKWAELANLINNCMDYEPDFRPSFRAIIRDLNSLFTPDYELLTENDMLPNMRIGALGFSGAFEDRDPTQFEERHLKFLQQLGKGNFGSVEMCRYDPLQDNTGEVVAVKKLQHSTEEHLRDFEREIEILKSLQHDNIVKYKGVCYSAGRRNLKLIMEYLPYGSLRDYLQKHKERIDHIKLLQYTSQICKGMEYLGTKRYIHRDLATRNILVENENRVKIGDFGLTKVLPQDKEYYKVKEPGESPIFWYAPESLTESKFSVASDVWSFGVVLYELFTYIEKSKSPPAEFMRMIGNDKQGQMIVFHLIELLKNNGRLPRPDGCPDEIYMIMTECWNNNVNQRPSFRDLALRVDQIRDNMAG
Chain of Death-associated protein kinase 3 (O43293 whole entry): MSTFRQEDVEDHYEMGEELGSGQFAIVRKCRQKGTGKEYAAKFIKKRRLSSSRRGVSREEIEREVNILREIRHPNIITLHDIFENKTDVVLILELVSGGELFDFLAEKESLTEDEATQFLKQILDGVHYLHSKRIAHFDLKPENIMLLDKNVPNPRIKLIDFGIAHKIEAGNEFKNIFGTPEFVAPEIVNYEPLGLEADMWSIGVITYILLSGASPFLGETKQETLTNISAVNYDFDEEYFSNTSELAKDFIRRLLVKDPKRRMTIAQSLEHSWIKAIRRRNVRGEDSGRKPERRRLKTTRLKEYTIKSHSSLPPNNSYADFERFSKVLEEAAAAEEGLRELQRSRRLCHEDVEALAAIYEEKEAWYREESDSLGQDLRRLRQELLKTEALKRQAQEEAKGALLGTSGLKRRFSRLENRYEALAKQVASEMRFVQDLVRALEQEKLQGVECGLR
Chain of Receptor-type tyrosine-protein kinase FLT3 (P36888 whole entry): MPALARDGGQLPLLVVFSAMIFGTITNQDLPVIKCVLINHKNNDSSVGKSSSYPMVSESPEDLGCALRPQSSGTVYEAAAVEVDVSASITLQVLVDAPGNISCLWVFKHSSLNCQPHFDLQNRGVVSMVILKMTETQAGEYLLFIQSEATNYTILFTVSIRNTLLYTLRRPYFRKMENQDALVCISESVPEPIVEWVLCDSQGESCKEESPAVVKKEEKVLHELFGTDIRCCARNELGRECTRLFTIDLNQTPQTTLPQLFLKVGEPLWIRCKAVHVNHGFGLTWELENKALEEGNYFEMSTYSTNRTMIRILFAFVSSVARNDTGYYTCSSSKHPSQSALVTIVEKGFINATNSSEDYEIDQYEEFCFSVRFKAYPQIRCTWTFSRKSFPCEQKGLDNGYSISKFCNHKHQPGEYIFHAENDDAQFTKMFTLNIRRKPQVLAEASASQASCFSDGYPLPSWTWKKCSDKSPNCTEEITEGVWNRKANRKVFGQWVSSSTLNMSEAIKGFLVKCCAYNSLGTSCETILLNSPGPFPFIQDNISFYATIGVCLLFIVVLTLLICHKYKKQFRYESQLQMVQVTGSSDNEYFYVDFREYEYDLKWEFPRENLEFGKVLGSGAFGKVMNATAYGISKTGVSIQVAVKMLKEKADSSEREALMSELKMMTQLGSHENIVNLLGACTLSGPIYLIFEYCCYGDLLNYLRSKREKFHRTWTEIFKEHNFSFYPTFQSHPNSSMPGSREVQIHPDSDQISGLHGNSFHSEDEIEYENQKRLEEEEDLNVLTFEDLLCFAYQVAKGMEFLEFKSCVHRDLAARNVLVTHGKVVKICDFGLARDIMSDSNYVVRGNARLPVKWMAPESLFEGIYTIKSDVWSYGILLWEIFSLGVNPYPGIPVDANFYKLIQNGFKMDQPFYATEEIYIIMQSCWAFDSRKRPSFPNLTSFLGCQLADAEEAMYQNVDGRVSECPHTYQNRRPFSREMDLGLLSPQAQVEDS
Chain of Glycogen synthase kinase-3 beta (P49841 whole entry): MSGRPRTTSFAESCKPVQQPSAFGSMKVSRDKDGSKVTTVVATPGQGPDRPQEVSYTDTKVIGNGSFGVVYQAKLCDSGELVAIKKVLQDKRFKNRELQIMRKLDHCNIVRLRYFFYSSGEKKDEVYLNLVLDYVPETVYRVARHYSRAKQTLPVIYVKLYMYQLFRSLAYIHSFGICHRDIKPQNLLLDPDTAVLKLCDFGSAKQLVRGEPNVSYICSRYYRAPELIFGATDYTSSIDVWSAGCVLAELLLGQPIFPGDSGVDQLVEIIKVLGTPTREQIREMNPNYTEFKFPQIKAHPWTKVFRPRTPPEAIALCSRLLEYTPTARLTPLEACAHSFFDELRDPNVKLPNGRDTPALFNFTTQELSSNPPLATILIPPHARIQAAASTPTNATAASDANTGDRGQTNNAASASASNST
Chain of G protein-coupled receptor kinase 5 (P34947 whole entry): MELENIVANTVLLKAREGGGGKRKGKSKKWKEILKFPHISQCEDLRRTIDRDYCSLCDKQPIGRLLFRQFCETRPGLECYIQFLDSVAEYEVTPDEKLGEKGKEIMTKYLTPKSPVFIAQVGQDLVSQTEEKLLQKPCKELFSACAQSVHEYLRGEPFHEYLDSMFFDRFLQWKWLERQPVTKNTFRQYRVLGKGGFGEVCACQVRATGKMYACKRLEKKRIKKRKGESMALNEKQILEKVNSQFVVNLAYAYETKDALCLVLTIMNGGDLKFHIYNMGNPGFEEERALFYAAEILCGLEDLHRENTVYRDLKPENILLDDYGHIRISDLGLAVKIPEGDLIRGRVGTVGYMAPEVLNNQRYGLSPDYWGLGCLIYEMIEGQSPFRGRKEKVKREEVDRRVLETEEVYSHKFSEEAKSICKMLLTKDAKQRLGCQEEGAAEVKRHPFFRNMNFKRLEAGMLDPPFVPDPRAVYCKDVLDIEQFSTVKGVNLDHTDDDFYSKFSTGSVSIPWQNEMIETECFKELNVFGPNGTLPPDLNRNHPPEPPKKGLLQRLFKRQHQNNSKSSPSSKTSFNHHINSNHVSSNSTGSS
Chain of Dual specificity protein kinase CLK4 (Q9HAZ1 whole entry): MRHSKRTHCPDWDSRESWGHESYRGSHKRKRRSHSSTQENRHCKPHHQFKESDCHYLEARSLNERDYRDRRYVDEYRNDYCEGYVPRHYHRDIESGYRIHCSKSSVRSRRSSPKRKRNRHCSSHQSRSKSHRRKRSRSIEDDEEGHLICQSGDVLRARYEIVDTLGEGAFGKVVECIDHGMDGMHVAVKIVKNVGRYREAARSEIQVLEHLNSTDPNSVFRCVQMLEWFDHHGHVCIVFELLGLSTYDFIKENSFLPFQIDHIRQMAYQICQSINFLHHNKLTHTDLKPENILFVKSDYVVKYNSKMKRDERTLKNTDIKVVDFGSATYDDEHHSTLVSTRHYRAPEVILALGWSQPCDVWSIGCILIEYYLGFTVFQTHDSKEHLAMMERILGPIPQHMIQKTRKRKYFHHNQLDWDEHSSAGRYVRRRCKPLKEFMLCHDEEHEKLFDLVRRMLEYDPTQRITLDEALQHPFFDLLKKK
Chain of Serine/threonine-protein kinase Chk2 (O96017 whole entry): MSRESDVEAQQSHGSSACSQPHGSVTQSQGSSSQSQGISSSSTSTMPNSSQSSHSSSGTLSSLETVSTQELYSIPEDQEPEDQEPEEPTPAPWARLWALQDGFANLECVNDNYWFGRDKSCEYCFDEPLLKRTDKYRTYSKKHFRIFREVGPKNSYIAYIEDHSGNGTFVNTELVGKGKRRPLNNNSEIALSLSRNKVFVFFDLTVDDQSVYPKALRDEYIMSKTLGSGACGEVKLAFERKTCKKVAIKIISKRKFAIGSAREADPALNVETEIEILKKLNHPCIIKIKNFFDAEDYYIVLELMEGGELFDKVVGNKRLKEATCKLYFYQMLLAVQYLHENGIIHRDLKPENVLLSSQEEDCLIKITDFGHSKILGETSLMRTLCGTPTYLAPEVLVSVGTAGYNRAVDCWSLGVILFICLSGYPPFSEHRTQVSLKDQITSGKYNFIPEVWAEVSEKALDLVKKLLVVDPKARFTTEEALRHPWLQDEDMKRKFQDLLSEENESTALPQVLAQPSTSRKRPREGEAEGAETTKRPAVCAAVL
Chain of cAMP-dependent protein kinase catalytic subunit PRKX (P51817 whole entry): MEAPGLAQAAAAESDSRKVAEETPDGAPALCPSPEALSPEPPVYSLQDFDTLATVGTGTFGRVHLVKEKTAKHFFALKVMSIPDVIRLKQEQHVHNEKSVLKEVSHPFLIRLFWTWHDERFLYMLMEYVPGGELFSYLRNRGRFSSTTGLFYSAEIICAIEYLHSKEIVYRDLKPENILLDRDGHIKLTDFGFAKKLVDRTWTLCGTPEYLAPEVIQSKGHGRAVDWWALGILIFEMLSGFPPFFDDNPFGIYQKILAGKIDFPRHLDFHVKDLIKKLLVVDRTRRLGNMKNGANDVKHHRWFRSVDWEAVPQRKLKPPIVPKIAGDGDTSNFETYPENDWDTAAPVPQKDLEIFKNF

What is called AC50 is the midpoint of the concentration-response curve, whichever way the signal moves. Regarding `O=C1C=C(NCc2ccccc2)c2ccccc2C1=O`, the AC50 in [1] is > 380 µM (inconclusive).

Usually EC50 stands for the concentration at which the effect is half-maximal. With `O=C(O)c1[nH]c2ccccc2c1C(c1cc(Cl)cc([N+](=O)[O-])c1O)c1c(C(=O)O)[nH]c2ccccc12`, the 50% effective concentration (EC50) in test [2] was 14.9 µM (active).

By Ki is commonly meant the equilibrium dissociation constant of an inhibitor or competing ligand from its target. As for `CCOC(=O)c1cn(-c2ccc(O)cc2C)c2cc(-c3ccncc3)ccc2c1=O`, the Ki in test [3] was > 2.51 µM (inactive); in test [4], > 1.26 µM (inactive); in [5] it was > 6.31 µM (inactive); in test [6] it was > 10 µM (inactive); in test [7] it was > 1.58 µM (inactive); in test [8] it was > 1.58 µM (inactive). Besides, the Ki is > 3.16 µM (inactive) in [9] and > 6.31 µM (inactive) in test [10].

As to `Cc1cc(=O)[nH]nc1-c1ccc(NC(=O)Nc2cc(C(F)(F)F)ccc2F)c(Cl)c1`, the Ki was > 2.51 µM (inactive) in test [11]; > 3.16 µM (inactive) in test [3]; > 3.98 µM (inactive) in test [12]; > 5.01 µM (inactive) in test [4]; > 2 µM (inactive) in test [5]; > 2.51 µM (inactive) in test [7]. Besides, the Ki in [13] was > 6.31 µM (inactive); in test [14], > 3.16 µM (inactive); in test [10] it was > 3.98 µM (inactive).

For the origin of these results see ChEMBL document CHEMBL1201862, “PubChem BioAssay data set” (2004).
